Values after ≈ are worked out from the molar mass of the structure shown.
Tests used:
Format in all cases: functional
[1] = system: Bacillus subtilis; test: Antibacterial activity against Bacillus subtilis assessed as inhibition of bacterial growth
[2] = system: Escherichia coli; test: Antibacterial activity against Escherichia coli assessed as inhibition of bacterial growth
[3] = Antioxidant activity assessed as trolox equivalent of DPPH radical scavenging activity by DPPH assay relative to trolox
[4] = Antioxidant activity assessed as DPPH radical scavenging activity by DPPH assay
[5] = system: Bacillus subtilis; test: Bactericidal activity against Bacillus subtilis assessed as decrease in cell survival
[6] = system: Escherichia coli; test: Bactericidal activity against Escherichia coli assessed as decrease in cell survival

Row | SMILES | MIC [1] | MIC [2] | Ratio IC50 [3] | IC50 [4] | MBC [5] | MBC [6]
1 | O=c1c(-c2ccc(O)cc2)coc2cc(O)ccc12 [DAIDZEIN] | > 1020 mg/L | > 1020 mg/L | – | – | – | –
2 | Oc1ccc([C@H]2COc3cc(O)c(O)cc3C2)cc1O | 256 mg/L (≈ 933 µM) | 128 mg/L (≈ 467 µM) | 2.28 | 112 µM | 256 mg/L (≈ 933 µM) | > 1020 mg/L
3 | Oc1ccc([C@H]2COc3cc(O)ccc3C2)cc1 [AUS-131] | 64 mg/L (≈ 264 µM) | 256 mg/L (≈ 1060 µM) | 4.99 10^-3No_unit | 52000 µM | 256 mg/L (≈ 1060 µM) | > 1020 mg/L
4 | Oc1ccc2c(c1)OC[C@H](c1ccc(O)c(O)c1)C2 | 256 mg/L (≈ 991 µM) | 512 mg/L (≈ 1980 µM) | 1.02 | 250 µM | 512 mg/L (≈ 1980 µM) | 512 mg/L (≈ 1980 µM)
5 | Oc1ccc([C@H]2COc3cc(O)c(O)cc3C2)cc1 | 128 mg/L (≈ 496 µM) | 64 mg/L (≈ 248 µM) | 1.08 | 233 µM | 128 mg/L (≈ 496 µM) | 64 mg/L (≈ 248 µM)
6 | Cc1c(C)c2c(c(C)c1O)CCC(C)(C(=O)O)O2 (configuration not stated) [TROLOX] | – | – | – | 249 µM | – | –
